Reference: the NIST ThermoML archive (doi:10.1021/je030107c)
± gives the expanded uncertainty stated by the source.

Tests used:
[1] = xn = mol fraction of the nth substance listed; settings: 101.3 kPa, Liquid; for viscosity: Capillary tube (Ostwald / Ubbelohde) method; for speed of sound: Linear variable-path acoustic interferometer; for mass density: Pycnometric method
[2] = refractive index (Na D-line) (dimensionless); xn = mol fraction of the nth substance listed; settings: 101.3 kPa, Liquid, Standard Abbe refractometry

C1COCCO1 [1,4-dioxane] + CCCCCC
Settings	mass density, 298.15 K [kg/m3]	mass density, 303.15 K [kg/m3]	mass density, 308.15 K [kg/m3]	refractive index, 298.15 K	refractive index, 303.15 K	refractive index, 308.15 K	speed of sound, 298.15 K [m/s]	viscosity, 298.15 K [mPa·s]	viscosity, 303.15 K [mPa·s]	viscosity, 308.15 K [mPa·s]
[1], x1 = 0.1135	682 ± 0.4	677.3 ± 0.4	672.5 ± 0.4	–	–	–	1087 ± 3	0.333 ± 0.003	0.319 ± 0.003	0.304 ± 0.003
[1], x1 = 0.2057	706.4 ± 0.4	701.4 ± 0.4	696.5 ± 0.4	–	–	–	1099 ± 3	0.357 ± 0.003	0.34 ± 0.003	0.323 ± 0.003
[1], x1 = 0.3099	736.2 ± 0.4	731.2 ± 0.4	726.1 ± 0.4	–	–	–	1116 ± 3	0.391 ± 0.004	0.372 ± 0.003	0.353 ± 0.003
[1], x1 = 0.4032	765.7 ± 0.4	760.5 ± 0.4	755.3 ± 0.4	–	–	–	1132 ± 3	0.429 ± 0.004	0.408 ± 0.004	0.386 ± 0.003
[1], x1 = 0.501	799.6 ± 0.5	794.3 ± 0.5	788.9 ± 0.5	–	–	–	1154 ± 3	0.482 ± 0.004	0.455 ± 0.004	0.429 ± 0.004
[1], x1 = 0.6028	838.1 ± 0.5	832.7 ± 0.5	827.2 ± 0.5	–	–	–	1185 ± 3	0.549 ± 0.005	0.517 ± 0.004	0.485 ± 0.004
[1], x1 = 0.7006	878.7 ± 0.5	873.3 ± 0.5	868 ± 0.5	–	–	–	1220 ± 3	0.634 ± 0.005	0.596 ± 0.005	0.557 ± 0.005
[1], x1 = 0.7991	924 ± 0.5	918.3 ± 0.5	912.4 ± 0.5	–	–	–	1257 ± 3	0.753 ± 0.006	0.705 ± 0.006	0.656 ± 0.005
[1], x1 = 0.8962	972.1 ± 0.6	966.4 ± 0.6	960.8 ± 0.6	–	–	–	1303 ± 3	0.912 ± 0.007	0.849 ± 0.007	0.787 ± 0.006
[1], x1 = 1	1027.6 ± 0.6	1021.9 ± 0.6	1016.2 ± 0.6	–	–	–	1347 ± 3	1.166 ± 0.009	1.069 ± 0.008	0.984 ± 0.008
[2], x1 = 0.1135	–	–	–	1.3758 ± 0.0011	1.3728 ± 0.0011	1.37 ± 0.0011	–	–	–	–
[2], x1 = 0.2057	–	–	–	1.3787 ± 0.0011	1.3756 ± 0.0011	1.3726 ± 0.0011	–	–	–	–
[2], x1 = 0.3099	–	–	–	1.3824 ± 0.0011	1.3795 ± 0.0011	1.3767 ± 0.0011	–	–	–	–
[2], x1 = 0.4032	–	–	–	1.3864 ± 0.0011	1.3838 ± 0.0011	1.3814 ± 0.0011	–	–	–	–
[2], x1 = 0.501	–	–	–	1.3906 ± 0.0011	1.3878 ± 0.0011	1.385 ± 0.0011	–	–	–	–
[2], x1 = 0.6028	–	–	–	1.3954 ± 0.0011	1.3928 ± 0.0011	1.3903 ± 0.0011	–	–	–	–
[2], x1 = 0.7006	–	–	–	1.4014 ± 0.0011	1.3986 ± 0.0011	1.3959 ± 0.0011	–	–	–	–
[2], x1 = 0.7991	–	–	–	1.4078 ± 0.0011	1.4048 ± 0.0011	1.4017 ± 0.0011	–	–	–	–
[2], x1 = 0.8962	–	–	–	1.414 ± 0.0011	1.4119 ± 0.0011	1.4098 ± 0.0011	–	–	–	–
[2], x1 = 1	–	–	–	1.4201 ± 0.0011	1.417 ± 0.0011	1.4143 ± 0.0011	–	–	–	–
